Publication PMC5373622, “Screening for AMPA receptor auxiliary subunit specific modulators” (PLoS ONE, 2017)

Key:
[1] = target: T1, tethered GluA2flip(Q)-stargazin (A2Q-stg cells) (Rattus norvegicus, UniProt P19491); test: Calcium flux (Fluo-8) compound CRC assay on A2Q-stg cells
From the text: (§3) Cell lines used in the calcium flux assay were GluA2flip(Q)-FLAG + GSG1L-1D4 pTREt-Va dual expression in TetON HEK cell clone #20 (A2Q-GSG), GluA2flip(Q)-FLAG + CNIH3-1D4 pTREt-Va dual expression in TetON HEK cell clone #8 (A2Q-C3), GluA2flip(Q)-FLAG pTREt-Va in TetON HEK cell clone #5 (A2Q), and tethered GluA2flip(Q)-FLAG-stargazin [28] in pTREt-Va dual expression in TetON HEK cell clone #13 (A2Q-stg) (Summarized in Table 1).
(§4) Compounds that were selected as hits using the VSD assay were subsequently screened against the calcium permeable A2Q-stg and A2Q-C3 cell lines in a glutamate potency fold-shift assay using the calcium sensing dye Fluo-8 (AAT Bioquest cat #21080). This assay is used to measure how pretreatment with compounds shifts the EC50 of glutamate on A2Q-stg and A2Q-C3 cells. 30 μM of each compound was pre-incubated with the cells for 120 secs and then an 11-point glutamate CRC from 4 mM to 10 pM was applied to the cells for 180 sec. […] Greiner 384-pp round-bottom plates containing glutamate solutions were dispensed by hand using a multi-channel pipet at 5X final concentration. […] Sodium butyrate and DOX were added to the cells at 1 mM and 5 μg/mL, respectively, 24 hours before screening. A2Q-stg cells were induced with 10 μg/mL DOX. Cells were incubated O/N and washed 4 times in low calcium buffer on an ELX405CW liquid aspirator and dispenser (BioTek). Buffer was left in the wells and an equal amount of 4.6 μM (2X) Fluo-8 (AAT Bioquest cat #21080) solution with 2.5 mM probenecid was added and incubated on the cells at room temperature for 40 minutes. Probenecid was added to block dye efflux from the cells [29]. Dye was washed off with low calcium buffer using the ELX405CW (BioTek) and plates were immediately inserted into the FDSS (Hamamatsu). Fluorescence signal was collected at 1 Hz using Ex. 480±20 nm/Em. 540±40 nm. Baseline signal was collected for 10 seconds followed by addition of 20 μl of 2X compound for a final concentration of 30 μM. After 290 seconds, 10 μl of a 5X glutamate solution in high calcium buffer (10 mM HEPES, pH 7.4, 140 mM NaCl, 5 mM KCl, 1 mM MgCl2, 9 mM CaCl2, and 10 mM glucose) was added for 180 seconds.
These compound CRCs were applied to the cells 2 minutes before a 1mM glutamate stimulation. […] Normalized FDSS traces were curve fit to CRCs using the initial GLUslope (GLUslope1) in a 3–6 sec window after glutamate application. […]
Cells were loaded with Fluo-8 and excess dye was washed out. […] We measured GLUslope in three consecutive time windows, referred to as GLUslope1-3, because three phases were clearly detectable (Fig 4C). The final CRC curves were calculated from GLUslope1, obtained from the first 3–6 sec window.
The final compound CRC curves were calculated from GLUslope1. […]

[2] = target: GluA2flip(R)-CNIH3 (A2R-C3 TetON HEK293 cells) (Homo sapiens, UniProt P42262, Q607R); test: VSD assay (counter-screen, CRC) on A2R-C3 cells; settings: for concentration at which PAM/NAM activity is evident in raw VSD traces, A2R-C3: raw VSD data
Chain of GluA2flip(R)-CNIH3 (A2R-C3 TetON HEK293 cells) (P42262 25-883 isoform P42262-2 Q607R limits assumed): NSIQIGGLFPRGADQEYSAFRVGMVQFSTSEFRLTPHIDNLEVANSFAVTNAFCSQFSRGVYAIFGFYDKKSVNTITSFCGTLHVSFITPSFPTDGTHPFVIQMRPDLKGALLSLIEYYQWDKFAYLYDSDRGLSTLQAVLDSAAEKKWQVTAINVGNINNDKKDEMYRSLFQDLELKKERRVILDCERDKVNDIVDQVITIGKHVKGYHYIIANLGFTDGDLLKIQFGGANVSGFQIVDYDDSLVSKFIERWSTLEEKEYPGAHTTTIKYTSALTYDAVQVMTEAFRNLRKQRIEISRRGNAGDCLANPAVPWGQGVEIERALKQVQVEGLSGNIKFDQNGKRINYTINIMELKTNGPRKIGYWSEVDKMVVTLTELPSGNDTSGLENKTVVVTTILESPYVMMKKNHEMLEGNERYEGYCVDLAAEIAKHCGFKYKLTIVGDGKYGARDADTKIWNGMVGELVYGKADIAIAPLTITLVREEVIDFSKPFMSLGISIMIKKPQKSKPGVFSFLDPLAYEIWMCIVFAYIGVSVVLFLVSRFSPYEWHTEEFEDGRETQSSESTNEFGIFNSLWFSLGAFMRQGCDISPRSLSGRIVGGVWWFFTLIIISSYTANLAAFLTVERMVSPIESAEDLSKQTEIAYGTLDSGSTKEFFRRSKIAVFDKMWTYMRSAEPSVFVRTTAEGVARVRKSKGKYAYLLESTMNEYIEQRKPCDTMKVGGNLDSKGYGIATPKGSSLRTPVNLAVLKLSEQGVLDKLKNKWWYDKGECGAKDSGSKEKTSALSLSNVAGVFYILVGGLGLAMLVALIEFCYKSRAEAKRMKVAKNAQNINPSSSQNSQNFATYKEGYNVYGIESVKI
Chain of GluA2flip(R)-CNIH3 (A2R-C3 TetON HEK293 cells) (Q8TBE1 whole entry partner): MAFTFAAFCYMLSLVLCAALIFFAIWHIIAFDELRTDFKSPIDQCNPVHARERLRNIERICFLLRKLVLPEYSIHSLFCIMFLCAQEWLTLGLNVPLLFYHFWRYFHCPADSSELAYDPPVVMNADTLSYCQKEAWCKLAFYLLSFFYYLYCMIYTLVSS
From the text: Cell lines used in the VSD assays were TetON HEK293 cells. This was the parental cell line for all stable cell lines created. We used GluA2flip(R) TetON HEK cell clone #4 that doxycycline (DOX) dependently expresses GluA2flip(R) (A2R). The A2R cells were used as the base cell line to derive cell lines that co-express auxiliary subunits.
(§5) Greiner 384-pp round-bottom plates containing glutamate for the second add were dispensed by hand using a multi-channel pipet at 5X final concentration. A2R-stg cells were plated in 384-well BD PureCoat amine-coated plates (Corning Life Sciences) at 16k cells/well in DMEM medium supplemented with 10% heat-inactivated FBS and 100U/mL PenStrep antibiotic. […] Cells were incubated overnight (O/N) and washed 4 times in HBSS containing 20 mM HEPES, pH 7.4, on an ELX405CW liquid aspirator and dispenser (BioTek). Buffer was left in the wells and an equal amount of 2X FLIPR dye solution was added and incubated on the cells at room temperature for 45 min. Fluorescence signal was collected at 1 Hz using Ex. 480±20 nm/Em. 540±40 nm on a Hamamatsu Functional Drug Screening System 6000 (FDSS). Baseline signal was collected for 10 seconds followed by addition of 10 μl of 5X compound for a final concentration of 10 μM.
This assay was carried out in the same way as the VSD screening assay except a 10-point concentration curve, from 40 μM to 10 nM, was plated in triplicate for each compound on a single 384-well plate. Data were summarized by plotting them as %max GLUslope against log [compound] that was fit to a four-parameter logistical model. %max GLUslope is defined as a normalized GLUslope expressed as a percentage of the mean maximum GLUslope, defined as 100, where background mean vehicle control (VHLslope) were subtracted from both values on a per plate basis. Thus, %max GLU slope = (GLUslope-mean VHLslope/mean maxGLUslope-mean VHLslope).

[3] = target: T1, tethered GluA2flip(Q)-stargazin (A2Q-stg cells); test: Calcium flux (Fluo-8) glutamate potency fold-shift assay on A2Q-stg cells; format: cell-based; settings: 30 μM compound
Method: (§1) In this assay, a maximal dose (30 μM) of each compound (Fig 4Di) was incubated on cells for 120 secs and then a CRC for glutamate ranging from 4 mM to 10 pM was collected (Fig 4Dii). A rightward shift of the CRC for glutamate to a higher EC50 indicates NAM activity and a leftward shift to a lower EC50 indicates PAM activity (Fig 4E). […] These compounds, considered active, were then evaluated as a CRC of the compounds in the calcium flux assay.

[4] = target: GluA2flip(R)-stargazin (A2R-stg TetON HEK293 cells) (Homo sapiens, UniProt P42262, Q607R); test: Voltage-sensitive dye (VSD) assay (primary screen, counter-screen, CRC) on A2R-stg cells; settings: for concentration at which PAM/NAM activity is evident in raw VSD traces, A2R-stg: raw VSD data
Chain of GluA2flip(R)-stargazin (A2R-stg TetON HEK293 cells) (P42262 25-883 isoform P42262-2 Q607R limits assumed): as the sequence (P42262 25-883 isoform P42262-2 Q607R limits assumed) above
Chain of GluA2flip(R)-stargazin (A2R-stg TetON HEK293 cells) (Q9Y698 whole entry partner): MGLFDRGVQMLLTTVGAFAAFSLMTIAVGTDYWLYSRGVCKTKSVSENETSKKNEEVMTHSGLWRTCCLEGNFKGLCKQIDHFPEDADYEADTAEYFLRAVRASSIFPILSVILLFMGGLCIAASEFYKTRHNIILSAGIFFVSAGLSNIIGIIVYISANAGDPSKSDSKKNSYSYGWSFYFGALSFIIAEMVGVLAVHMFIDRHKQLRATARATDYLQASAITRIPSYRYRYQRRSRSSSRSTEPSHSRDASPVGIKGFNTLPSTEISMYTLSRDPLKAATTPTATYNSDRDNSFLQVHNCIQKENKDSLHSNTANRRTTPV
Method: Cell lines used in the VSD assays were TetON HEK293 cells. […] We used GluA2flip(R) TetON HEK cell clone #4 that doxycycline (DOX) dependently expresses GluA2flip(R) (A2R). The A2R cells were used as the base cell line to derive cell lines that co-express auxiliary subunits.
as §5
Hits were selected from this initial screen using 4 different criteria, which we termed CMPDslope, CMPDmaxmin, GLUslope, and GLUmaxmin. […] GLUslope is the fitted slope of the increase in fluorescence within 10 sec after adding glutamate. GLUmaxmin is the difference in the minimum and maximum value in fluorescence signal reached in the 100 sec window after adding glutamate. Compounds were classified as hits if they differed by 3 standard deviations of the mean for each criterion. Tier 1 hits were classified as those that hit in the GLUslope, GLUmaxmin, and CMPDmaxmin windows. Tier 2 hits were classified as compounds that hit in the GLUslope window and either the GLUmaxmin or CMPDmaxmin window. Tier 3 hits were classified as those that hit in only the GLUslope or the GLUmaxmin window. Tier 4 hits were classified as compounds that hit only in the CMPD window, CMPDslope or CMPDmaxmin. Hit selection was further narrowed using the criterion that their signal must return to near baseline values before entering the glutamate add window.
VSD concentration response curves (CRCs): After the above counter-screens, compounds that remained positive were moved forward to collect complete CRCs for A2R-stg and A2R-C3 cell lines. This assay was carried out in the same way as the VSD screening assay except a 10-point concentration curve, from 40 μM to 10 nM, was plated in triplicate for each compound on a single 384-well plate. Data were summarized by plotting them as %max GLUslope against log [compound] that was fit to a four-parameter logistical model. %max GLUslope is defined as a normalized GLUslope expressed as a percentage of the mean maximum GLUslope, defined as 100, where background mean vehicle control (VHLslope) were subtracted from both values on a per plate basis. Thus, %max GLU slope = (GLUslope-mean VHLslope/mean maxGLUslope-mean VHLslope).

[5] = target: T2, GluA2flip(Q)-CNIH3 (A2Q-C3 cells) (Homo sapiens, UniProt P42262); test: Calcium flux (Fluo-8) glutamate potency fold-shift assay on A2Q-C3 cells; format: cell-based; parameters: FLAG (C); expressed in transfected cells; settings: 30 μM compound
T2 sequence (P42262 25-883 isoform P42262-2 limits assumed): as the sequence (P42262 25-883 isoform P42262-2 Q607R limits assumed) above, with R583Q counted along it
T2 sequence (Q8TBE1 whole entry partner): as the sequence (Q8TBE1 whole entry partner) above
Method: as §1

[6] = target: GluA2flip(Q)-GSG1L (A2Q-GSG cells) (Homo sapiens, UniProt P42262); test: Calcium flux (Fluo-8) compound CRC assay on A2Q-GSG cells
Chain of GluA2flip(Q)-GSG1L (A2Q-GSG cells) (P42262 25-883 isoform P42262-2 limits assumed): as the sequence (P42262 25-883 isoform P42262-2 Q607R limits assumed) above, with R583Q counted along it
Chain of GluA2flip(Q)-GSG1L (A2Q-GSG cells) (Q6UXU4 whole entry partner): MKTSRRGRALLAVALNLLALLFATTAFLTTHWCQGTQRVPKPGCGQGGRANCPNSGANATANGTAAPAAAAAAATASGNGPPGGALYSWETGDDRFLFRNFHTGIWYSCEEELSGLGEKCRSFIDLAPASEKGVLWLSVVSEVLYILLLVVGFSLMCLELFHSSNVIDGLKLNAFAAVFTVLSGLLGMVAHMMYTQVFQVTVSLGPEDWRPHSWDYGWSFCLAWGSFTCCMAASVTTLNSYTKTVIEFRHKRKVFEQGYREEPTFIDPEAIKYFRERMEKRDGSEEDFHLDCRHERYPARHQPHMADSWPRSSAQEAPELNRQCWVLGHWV
From the text: as §3, §4
(§6) These compound CRCs were applied to the cells 2 minutes before a 1mM glutamate stimulation. […] Normalized FDSS traces were curve fit to CRCs using the initial GLUslope (GLUslope1) in a 3–6 sec window after glutamate application. CRCs were also plotted for the traces’ area under the curve (AUC) in the GLUmaxmin window. […] Compounds were plotted as %max GLUslope against log [compound] and fit to a four-parameter logistical model as in the VSD.
(§7) Cells were loaded with Fluo-8 and excess dye was washed out. After 120 secs of pre-incubation with compound at concentrations ranging from 30 μM to 30 nM (Fig 4Bi), 1 mM glutamate was added (Fig 4Bii). In the calcium assay, 250 μM was used as the maxGLU dose because the GLUslope1 values decreased at higher concentrations of glutamate, making it the dose with the maximal GLUslope1 response. […] We measured GLUslope in three consecutive time windows, referred to as GLUslope1-3, because three phases were clearly detectable (Fig 4C). The final CRC curves were calculated from GLUslope1, obtained from the first 3–6 sec window.
(§8) The final compound CRC curves were calculated from GLUslope1. […] The AUC measures the accumulation of calcium instead of gating and sometimes produced a CRC fit when GLUslope1 could not derive an EC50 value.

GluA2flip(Q) (A2Q cells) = target: T3, GluA2flip(Q) (A2Q cells) (Homo sapiens, UniProt P42262); test: Calcium flux (Fluo-8) compound CRC assay on A2Q cells; format: cell-based
T3 construct: FLAG (C); expressed in transfected cells
T3 sequence (P42262 25-883 isoform P42262-2 limits assumed): as the sequence (P42262 25-883 isoform P42262-2 Q607R limits assumed) above, with R583Q counted along it

[7] = target: T2, GluA2flip(Q)-CNIH3 (A2Q-C3 cells); test: Calcium flux (Fluo-8) compound CRC assay on A2Q-C3 cells
From the text: as §3, §4, §6, §7, §8

GluA2flip(R) (A2R cells) = target: T4, GluA2flip(R) (A2R cells) (Homo sapiens, UniProt P42262, Q607R); test: Whole-cell electrophysiology with fast ligand application, A2R cells; format: cell-based; settings: 40 μM compound
T4 construct: expressed in transfected cells
T4 sequence (P42262 25-883 isoform P42262-2 Q607R limits assumed): as the sequence (P42262 25-883 isoform P42262-2 Q607R limits assumed) above
Method: (§2) A2R-stg cells were plated on HNO3 washed coverslips coated with 1:20000 poly-d-lysine (incubated for 20 min, washed with PBS 2x and media 1x) for 2 hours. They were induced with 5 μg/mL DOX for 24 hours before recording. A2R cells were plated on 1:60000 poly-d-lysine for 2 hours and induced with 7.5 μg/mL DOX for 30 hours before recording. The cells were lifted from the coverslip after whole cell configuration was achieved and brought in front of the theta tubing. […] Recording was done using a single channel of a Multiclamp700B Amplifier (Axon Instruments) operated by pClamp10 software. Signals were digitized using Digidata1440A (Axon Instruments) at a sampling rate of 50 kHz and low pass filtered at 2kHz. Borosilicate glass capillaries (O.D. 1.5 mm, I.D. 0.86 mm, Sutter) were pulled to manufacture electrodes with pipette resistances of 3.5–5 MΩ.
Standard solution without ligand was the external solution. The ligand solution contained 1mM glutamate in external solution, supplemented with 2mM glucose and 3mM NaCl to facilitate visualizing the interface of the two solutions and recording liquid junction potential after breaking the patch. The 10–90% rise time of liquid junction potential was around 300μsec. VU0627849 was dissolved in external solution containing 1 mM glutamate to a final concentration of 40 μM. […]

[8] = target: T5, GluA2flip(R) (A2R TetON HEK293 cells) (Homo sapiens, UniProt P42262, Q607R); test: VSD counter-screen on A2R cells; format: cell-based; settings: 10 μM compound
T5 construct: expressed in transfected cells
T5 sequence (P42262 25-883 isoform P42262-2 Q607R limits assumed): as above

[9] = target: T6, GluA2flip(R)-stargazin (A2R-stg cells) (Homo sapiens, UniProt P42262, Q607R); test: Whole-cell electrophysiology with fast ligand application, A2R-stg cells; format: cell-based; settings: 40 μM compound
T6 construct: expressed in transfected cells
T6 sequence (P42262 25-883 isoform P42262-2 Q607R limits assumed): as above
T6 sequence (Q9Y698 whole entry partner): as the sequence (Q9Y698 whole entry partner) above
Method: as §2
Standard solution without ligand was the external solution. The ligand solution contained 1mM glutamate in external solution, supplemented with 2mM glucose and 3mM NaCl to facilitate visualizing the interface of the two solutions and recording liquid junction potential after breaking the patch. The 10–90% rise time of liquid junction potential was around 300μsec. VU0627849 was dissolved in external solution containing 1 mM glutamate to a final concentration of 40 μM. Tips of the tubing for each solution were positioned immediately before the opening of one compartment of the theta tubing. Drug-containing and drug-free glutamate solutions were switched using a manual valve located between the solution reservoir and theta glass tube. Solution speed was adjusted by the height of the reservoir using gravity.
We have conducted a preliminary electrophysiological investigation of the compound VU0627849. Using a fast ligand application system, A2R and A2R-stg cells were stimulated with 1mM glutamate using a 100 ms pulse followed by a 50 ms interval and a second 20 ms pulse to evaluate recovery from desensitization (Fig 10A and 10B red traces). […] These effects are drug specific because wash out of VU0627849 restored the original current (Fig 10B, black trace). We also see a small effect on A2R cells that was not seen in the VSD assay (Fig 10A blue trace). VU0627849 acted as a PAM on A2R-stg cells, corroborating our HTS data from the VSD assay.

T1 sequence (P19491 22-883): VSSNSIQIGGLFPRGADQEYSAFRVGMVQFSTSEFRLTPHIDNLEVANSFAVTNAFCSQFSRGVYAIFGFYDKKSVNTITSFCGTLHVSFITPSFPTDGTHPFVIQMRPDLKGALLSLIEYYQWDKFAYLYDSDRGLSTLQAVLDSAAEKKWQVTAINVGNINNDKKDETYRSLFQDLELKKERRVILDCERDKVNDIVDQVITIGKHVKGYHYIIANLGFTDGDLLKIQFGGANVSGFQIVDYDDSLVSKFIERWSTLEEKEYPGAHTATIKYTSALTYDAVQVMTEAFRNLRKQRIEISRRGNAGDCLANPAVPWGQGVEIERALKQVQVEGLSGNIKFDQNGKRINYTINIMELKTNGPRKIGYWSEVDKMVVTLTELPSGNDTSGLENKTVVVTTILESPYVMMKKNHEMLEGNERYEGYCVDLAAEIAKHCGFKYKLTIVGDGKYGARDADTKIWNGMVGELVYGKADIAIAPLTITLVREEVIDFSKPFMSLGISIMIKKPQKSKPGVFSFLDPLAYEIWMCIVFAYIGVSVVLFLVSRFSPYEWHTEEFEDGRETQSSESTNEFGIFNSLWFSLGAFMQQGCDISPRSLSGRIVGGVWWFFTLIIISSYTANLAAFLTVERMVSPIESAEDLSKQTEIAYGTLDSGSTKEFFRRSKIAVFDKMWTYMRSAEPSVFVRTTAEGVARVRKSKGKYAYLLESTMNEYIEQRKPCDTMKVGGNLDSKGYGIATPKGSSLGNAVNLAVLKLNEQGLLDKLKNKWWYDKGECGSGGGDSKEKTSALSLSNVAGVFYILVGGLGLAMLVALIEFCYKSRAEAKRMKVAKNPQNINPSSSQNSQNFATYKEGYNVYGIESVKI
T1 sequence (Q71RJ2 whole entry partner): as the sequence (Q9Y698 whole entry partner) above, with I257V, E306D, N307S, S313A counted along it

Structure (SMILES)	PAM/NAM activity in calcium flux CRC assay, A2Q-stg [1]	IC50 [2] [µM]	PAM/NAM activity in VSD assay, A2R-C3 [2]	concentration at which PAM/NAM activity is evident in raw VSD traces, A2R-C3 [2]	PAM/NAM categorisation in glutamate potency fold-shift assay, A2Q-stg [3]	PAM/NAM activity in VSD assay, A2R-stg [4]	concentration at which PAM/NAM activity is evident in raw VSD traces, A2R-stg [4]	PAM/NAM categorisation in glutamate potency fold-shift assay, A2Q-C3 [5]	PAM/NAM activity in calcium flux CRC assay, A2Q-GSG [6]	PAM/NAM activity in calcium flux CRC assay, A2Q (GluA2flip(Q) (A2Q cells))	PAM/NAM activity in calcium flux CRC assay, A2Q-C3 [7]	EC50 [4] [µM]	other results
CCCc1c(C(=O)NC2CCCCC2)nnn1-c1ccccc1 [VU0612951]	negative trend	0.87	NAM	higher than 1 μM	right-shifts	NAM	submicromolar	right-shifts					decrease in %max GLUslope across the CRC, A2R-C3 ([2]; VSD CRC 40 μM to 10 nM): ~ 40%; IC50 [4]: 1.5 µM; decrease in %max GLUslope across the CRC, A2R-stg ([4]; VSD CRC 40 μM to 10 nM): ~ 40%
COc1ccccc1CC(=O)NC1(c2nc(-c3ccsc3)no2)CCCCC1 [VU0539491]	Slight NAM activity	3.2	NAM		NAM	PAM		NAM	PAM	Slight NAM activity	slight decrease in signal	4.2	
O=C(Cc1cc(-c2ccc3c(c2)OCCO3)on1)NCc1ccccc1 [VU0627849]	PAM		PAM	≥ 2.5 µM		PAM	≥ 2.5 µM		PAM	PAM	PAM	0.86	effect on A2R cells in electrophysiology (GluA2flip(R) (A2R cells)): small effect; increase in response of A2Q-stg cells ([1]; 7.5 and 30 μM compound): ~ 300 arbitrary fluorescence units (AFU); Activity on A2R cells in counter-screens [8]: did not show any activity; EC50 [2]: 0.85 µM; EC50 [6]: 24.9 µM; positive change in %max GLUslope, A2Q-GSG ([6]; across calcium flux CRC): > 80%; PAM/NAM activity in electrophysiology, A2R-stg [9]: PAM; change in peak amplitude ([9]; 1 mM glutamate 100 ms pulse, preliminary): no change; amplitude in the second pulse of glutamate ([9]; second 20 ms pulse after 50 ms interval, preliminary): increased amplitude; resensitization ([9]; within 10 ms following initial activation and desensitization, preliminary): delayed increase in resensitization; EC50 (GluA2flip(Q) (A2Q cells); CRC from GLUslope1, 1 mM glutamate, PAM, read-out: EC50 Ca2+ Sensing, A2Q): 14.1 µM; positive change in %max GLUslope, A2Q (GluA2flip(Q) (A2Q cells); across calcium flux CRC): > 80%; EC50 [7]: 3.1 µM; positive change in %max GLUslope, A2Q-C3 ([7]; across calcium flux CRC): > 80%
